Structures can show the parent of a compound that is named as a salt. Where two headings read alike, the source gives them in different places.
Experiments:
5-HT2A receptor = target: T1, 5-HT2A receptor (Rattus norvegicus, UniProt P14842); assay: Specific 5-HT2A receptor binding test (tritiated ketanserin, cerebral cortex crude synaptosome fraction); conditions: Wistar rat cerebral cortex synaptosome; tritiated ketanserin 0.2 nmol/L; 37° C., 20 minutes
T1 construct: A crude synaptosome fraction was separated from the cerebral cortex of Wistar rats; from tissue; host or cells: Wistar rat cerebral cortex, crude synaptosome fraction
T1 sequence (P14842 whole entry): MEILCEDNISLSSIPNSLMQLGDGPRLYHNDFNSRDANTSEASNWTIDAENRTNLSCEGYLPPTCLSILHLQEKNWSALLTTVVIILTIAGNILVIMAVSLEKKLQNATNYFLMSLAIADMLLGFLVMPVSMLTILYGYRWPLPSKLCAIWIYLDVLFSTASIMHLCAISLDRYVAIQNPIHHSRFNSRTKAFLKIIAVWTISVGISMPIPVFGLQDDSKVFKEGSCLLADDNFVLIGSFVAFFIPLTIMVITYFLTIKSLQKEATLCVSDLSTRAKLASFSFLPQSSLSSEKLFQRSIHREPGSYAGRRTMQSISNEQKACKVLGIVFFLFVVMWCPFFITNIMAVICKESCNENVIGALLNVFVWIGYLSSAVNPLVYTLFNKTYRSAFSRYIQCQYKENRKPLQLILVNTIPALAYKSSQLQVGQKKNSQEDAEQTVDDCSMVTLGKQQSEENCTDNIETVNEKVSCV
Description: A specific 5-HT2A receptor binding test was performed in accordance with a publicly known method (Molecular Pharmacology, Vol.21, p.301, 1981).
A crude synaptosome fraction was separated from the cerebral cortex of Wistar rats at 6 to 12 weeks of age (SEAC Yoshitomi), suspended in 50 mmol/L tris-HCl buffer solution (pH 7.7) (Nacalai Tesque, Inc.), and used in the experiments. Next, each test compound at several different concentrations and tritiated ketanserin (final concentration 0.2 nmol/L) (Japan Radioisotope) were added to the synaptosome suspension, and they were reacted at 37° C. for 20 minutes. After the reaction, the reaction liquor was suction-filtered through a Whatman GF/B filter (NeuroScience, Inc.), and the filter was washed with 50 mmol/L tris-HCl buffer solution (pH 7.7), after which radioactivity remaining in the filter was measured using a liquid scintillation counter (Aloka Co., Ltd.). Non-specific binding was determined in the presence of 10^−5 mmol/L mianserin (Sigma Ltd.). 50% inhibitory concentrations were graphically calculated, and inhibition constants (Ki values) were determined.

[1] = tested on: norepinephrine uptake into mouse cerebral synaptosome; assay: Norepinephrine uptake inhibitory action in crude synaptosome fraction; type: biochemical; conditions: male ddy mouse hyppocampus synaptosome; tritiated norepinephrine; 37° C., 10 minutes; read-out: 50% inhibitory concentration (IC50) for norepinephrine uptake into mouse cerebral synaptosome
Description: Using a publicly known method (Journal of Pharmacology and Experimental Therapeutics, Vol.165, p.78, 1969) with partial modification, norepinephrine uptake inhibitory action was measured.
A crude synaptosome fraction was separated from the hyppocampus of a male ddy mouse, suspended in Krebs-Henseleit buffer solution (pH 7.4), and used in the experiments. Next, each test compound at several different concentrations was added to the synaptosome suspension and pre-incubated for 5 minutes, after which tritiated norepinephrine (Japan Radioisotope) was added to the reaction liquor, and they were reacted at 37° C. for 10 minutes. After the reaction, the reaction liquor was suction-filtered through a Whatman GF/B filter (NeuroScience, Inc.), and the filter was washed with Krebs-Henseleit buffer solution (pH 7.4), after which radioactivity remaining in the filter was measured using a liquid scintillation counter (Packard company, 3380 model). Norepinephrine concentration dependent uptake was obtained by subtracting the uptake at 0° C. from the uptake at 37° C. 50% inhibitory concentrations were graphically calculated, and inhibition constants (Ki values) were determined.

[2] = tested on: rats with juvenile dopamine neulolysis due to 6-OH-DA treatment; assay: Suppressive effect on increased motor activity in rats with juvenile dopamine neulolysis due to 6-OH-DA treatment; type: in vivo, rat; conditions: for ED50: Rattus norvegicus, read-out: ED50 for the suppression of increased motor activity due to the 6-OH-DA treatment as 100%; for Effect on increased motor activity due to the 6-OH-DA treatment: compound A 1, 3 or 10 mg/kg, Atomoxetine 1, 3, 10 or 30 mg/kg, vs 0.5% HPMC control
Description: Suppressive effect on increased motor activity in rats with juvenile dopamine neulolysis due to 6-OH-DA treatment Male SD rats (Charles River Japan) were pre-treated with desipramine (Sigma Ltd.) in accordance with the method of Zhang et al. (Neuropsychopharmacology 2001 November;25(5):624-32) on day 5 after birth, after which 6-hydroxydopamine (hereinafter referred to as 6-OH-DA) (Sigma Ltd.) was administered to the cerebral ventricle on one side. During 12 to 18 days after birth, acclimation to a motor activity measurement apparatus (Toyo Sangyo) was performed three times; on day 19 after birth, motor activity was measured and the animals were grouped. […] For control, 0.5% HPMC (hydroxypropylmethylcellulose) was orally administered.

normal rats = assay: Effect on motor activity in normal rats; type: in vivo, rat; conditions: oral (FIG. 1-B)

In the case of `c1csc(Cc2ccccc2OC[C@H]2CNCCO2)c1` [B, R-2-[[o-(2-thenyl)phenoxy]methyl]morpholine maleic acid salt], the Ki (5-HT2A receptor) is reported as 1000 nM and the IC50 [1] is reported as 33 nM.
`c1csc(Cc2ccccc2OC[C@@H]2CNCCO2)c1` [compound A, S-2-[[o-(2-thenyl)phenoxy]methyl]morpholine maleic acid salt] was tested, and the ED50 ([2]; oral, motor activity during 30 minutes following 1 hour after administration, linear regression) was 1.7 mg/kg, the “Dose from which a significant difference in suppression of increased motor activity was observed” value ([2]; oral, P<0.01 versus control (Dunnett method)) was at least 3 mg/kg and the “Effect on increased motor activity due to the 6-OH-DA treatment” value ([2]; oral) was “dose-dependently inhibited”. For the same compound, the “Suppression of motor activity in normal rats” value (normal rats) was “no significant suppression of motor activity was observed”, the Ki (5-HT2A receptor) was 26 nM and the IC50 [1] was 2.6 nM.
With `CNCCC(Oc1ccccc1C)c1ccccc1.Cl` (single isomer, unassigned; (-)) [Atomoxetine, (−)-N-methyl-3-((2-methylphenyl)oxy)-3-phenyl-1-aminopropane hydrochloride, reference compound] the ED50 ([2]; po) was 24 mg/kg and the “Effect on increased motor activity due to the 6-OH-DA treatment” value ([2]; oral) was “dose-dependently suppressed, but no significant suppression was observed”.
`c1csc(Cc2ccccc2OCC2CNCCO2)c1` (racemic) [teniloxazine, (±)-2-[[o-(2-thenyl)phenoxy]methyl]morpholine maleic acid salt, reference compound] gave a Ki (5-HT2A receptor) of 49 nM and an IC50 [1] of 12 nM.
